{
  "source": "patent US7666868B2",
  "about": "“N-sulphonylpyrroles and their use as histone deacetylase inhibitors” (4SC AG, priority 2005, dated 2010)",
  "data": [
    {"test_system": "histone H3 acetylation (lysine 9+14) in HeLa cervical carcinoma cells", "assay": "Cellular histone H3 acetylation assay", "format": "cell-based", "conditions": "Homo sapiens, 24 h incubation with compound, read-out: EC50 (histone H3 acetylating cellular potency)", "from_the_text": "To assess the cellular efficacy of an histone deactylase inhibitor in vitro, an assay is set up in black clear-bottom 96-well plates and optimized for use on the Cellomics “ArrayScan II” platform for a quantitative calculation of histone acetylation. The protocol uses a polyclonal rabbit antibody, specifically binding to acetylated lysine 9+14 of human histone H3 on fixed cells with an Alexa Fluor 488 labeled goat ant rabbit-IgG used for counterstaining (modified from Braunger et al. MCR annual conference 2003, Abstract 4556).\n5×10^3 HeLa cervical carcinoma cells/well (ATCC CCL-2) in 200 μl Dulbecco's modified Eagle's medium (DMEM) containing 10% fetal calf serum are seeded at day 1 in Packard view plates and incubated for 24 h under standard cell culture conditions. On day 2, 2 μl test compound (100× final concentration) is added and incubation continued for further 24 h. On day 3, the culture medium is discarded and attached cells fixed for 15 min at room temperature by addition of 100 μl fixation buffer (3.7% v:v formaldehyde in phosphate buffered saline/PBS). After discarding the fixation buffer and one wash with PBS, cells are permeabilized at room temperature by addition of 100 μl/well permeabilization buffer (30.8 mM NaCl, 0.54 mM Na2HPO4, 0.31 mM KH2PO4, 5% v:v Triton X-100) for 15 min at room temperature. After discarding the permeabilization buffer and washing twice with 100 μl/well blocking solution (PBS with 0.05% v:v Tween 20 and 5% w:v milk powder) at room temperature, the 1st antibody (anti-K9+14 histone H3 antibody, Calbiochem No. 382158) in blocking solution (50 μl/well) is added. After incubation for 1 h at 37° C., the wells are washed twice at room temperature with 100 μl/well blocking solution before addition of the 2nd antibody (goat-anti-rabbit Alexa Fluor 488; MoBiTec No. A-11008) in blocking solution (50 μl/well). After further incubation for 1 h at 37° C., wells are washed twice with 100 μl/well blocking solution room temperature. Finally, 100 d/well PBS are added and image analysis performed on the Cellomics “ArrayScan II” platform. For calculation of EC50 values, the nuclear fluorescence in cells treated with and without a reference HDAC inhibitor (eg NVP-LBH-589) are taken as a positive and negative control. For EC50 determination, the percentage of positive cells is determined and EC50 calculation done from concentration-effect curves by means of non-linear regression.", "units": {"EC50": "nM"}, "values": [
      {"smiles": "CS(=O)(=O)Nc1cccc(-c2ccc(S(=O)(=O)n3ccc(/C=C/C(=O)NO)c3)cc2)c1", "note": "[Compound 22, (E)-N-hydroxy-3-[1-(3′-methanesulfonylamino-biphenyl-4-sulfonyl)-1H-pyrrol-3-yl]-acrylamide]", "EC50": "27 to 4400"},
      {"smiles": "CN(C)CCNC(=O)c1ccc(-c2cccc(S(=O)(=O)n3ccc(C=CC(=O)NO)c3)c2)cc1", "note": "[Compound 30, 3′-3-((E)-2-Hydroxycarbamoyl-vinyl)-pyrrole-1 sulfonyl]-biphenyl-4-carboxylic acid (2-dimethylamino-ethyl)-amide]", "EC50": "27 to 4400"},
      {"smiles": "COCCNCc1ccc(-c2cccc(S(=O)(=O)n3ccc(C=CC(=O)NO)c3)c2)cc1", "note": "[Compound 58, (E)-N-Hydroxy-3-(1-{4′-[(2-methoxy-othylamino)-methyl]-biphenyl-3-sulfonyl}-1H-pyrrol-3-yl)-acrylamide]", "EC50": "27 to 4400"},
      {"smiles": "Nc1ccccc1NC(=O)/C=C/c1ccn(S(=O)(=O)c2cccc(-c3cccc(CCN4CCOCC4)c3)c2)c1", "note": "[Compound 18, (E)-N-(2-Amino-phenyl)-3-{1-[3′-(2-morpholin-4-yl-ethyl)-biphenyl-3-sulfonyl]-1H-pyrrol-3-yl}-acrylamide]", "EC50": "27 to 4400"},
      {"smiles": "Nc1ccc(-c2cccc(S(=O)(=O)n3ccc(/C=C/C(=O)NO)c3)c2)cn1", "note": "[Compound 10, (E)-3-{1-[3-(6-Amino-pyridin-3-yl)-benzenesulfonyl]-1H-pyrrol-3-yl}-N-hydroxy-acrylamide]", "EC50": "27 to 4400"},
      {"smiles": "O=C(/C=C/c1ccn(S(=O)(=O)c2ccc(-c3ccc(OCCN4CCOCC4)cc3)s2)c1)NO", "note": "[Compound 56, (E)-N-Hydroxy-3-(1-{5-[4-(2-morpholin-4-yl-ethoxy)-phenyl]-thiophene-2-sulfonyl}-1H-pyrrol-3-yl)-acrylamide]", "EC50": "27 to 4400"},
      {"smiles": "O=C(/C=C/c1ccn(S(=O)(=O)c2cccc(-c3ccc(CN4CCOCC4)cc3)c2)c1)NO", "note": "[Compound 36, (E)-N-Hydroxy-3-[1-(4′-morpholin-4-ylmethyl-biphenyl-3-sulfonyl)-1H-pyrrol-3-yl]-acrylamide]", "EC50": "27 to 4400"},
      {"smiles": "CN1CCN(c2cc(-c3cccc(S(=O)(=O)n4ccc(/C=C/C(=O)NO)c4)c3)ccn2)CC1", "note": "[Compound 33, (E)-N-Hydroxy-3-(1-{3-[2-(4-methyl-piperazin-1-yl)-pyridin-4-yl]-benzenesulfonyl}-1H-pyrrol-3-yl)-acrylamide]", "EC50": "27 to 4400"},
      {"smiles": "O=C(/C=C/c1ccn(S(=O)(=O)c2cccc(-c3ccc(OCCN4CCOCC4)cc3)c2)c1)NO", "note": "[Compound 34, (E)-N-Hydroxy-3-{1-[4′-(2-morpholin-4-yl-ethoxy)-biphenyl-3-sulfonyl]-1H-pyrrol-3-yl}-acrylamide]", "EC50": "27 to 4400"},
      {"smiles": "Cn1cc(-c2cccc(S(=O)(=O)n3ccc(/C=C/C(=O)NO)c3)c2)cn1", "note": "[Compound 12, (E)-N-Hydroxy-3-(1-[3-(1-methyl-1H-pyrazol-4-yl)-benzenesulfonyl]-1H-pyrrol-3-yl)-acrylamide]", "EC50": "27 to 4400"},
      {"smiles": "CN(C)CCNC(=O)c1cccc(-c2ccc(S(=O)(=O)n3ccc(C=CC(=O)NO)c3)cc2)c1", "note": "[Compound 25, 4′-[3-(E)-2-Hydroxycarbamoyl-vinyl)-pyrrole-1-sulfonyl]-biphenyl-3-carboxylic acid (2-dimethylamino-ethyl)-amide]", "EC50": "27 to 4400"},
      {"smiles": "Nc1ccc(-c2cccc(S(=O)(=O)n3ccc(/C=C/C(=O)Nc4ccccc4N)c3)c2)cn1", "note": "[Compound 17, (E)-N-(2-Amino-phenyl)-3-{1-[3-(6-amino-pyridin-3-yl)-benzenesulfonyl]-1H-pyrrol-3-yl}-acrylamide]", "EC50": "27 to 4400"},
      {"smiles": "CN(C)Cc1ccc(-c2ccc(S(=O)(=O)n3ccc(/C=C/C(=O)NO)c3)cc2)cc1", "note": "[Compound 26, (E)-3-[1-(4′-Dimethylaminomethyl-biphenyl-4-sulfonyl)-1H-pyrrol-3-yl]-N-hydroxy-acrylamide]", "EC50": "27 to 4400"},
      {"smiles": "O=C(/C=C/c1ccn(S(=O)(=O)c2ccc(-c3ccc(CN4CCOCC4)cc3)s2)c1)NO", "note": "[Compound 54, (E)-N-Hydroxy-3-{1-[5-(4-morpholin-4-ylmethyl-phenyl)-thiophene-2-sulfonyl]-1H-pyrrol-3-yl}-acrylamide]", "EC50": "27 to 4400"},
      {"smiles": "CN(C)CCNC(=O)c1ccc(-c2ccc(S(=O)(=O)n3ccc(C=CC(=O)NO)c3)cc2)cc1", "note": "[Compound 24, 4′-[3-(E)-2-Hydroxycarbamoyl-vinyl)-pyrrole-1-sulfonyl]-biphenyl-4-carboxylic acid (2-dimethylamino-othyl)-amide]", "EC50": "27 to 4400"},
      {"smiles": "O=C(/C=C/c1ccn(S(=O)(=O)c2cccc(-c3cccc(CCN4CCOCC4)c3)c2)c1)NO", "note": "[Compound 20, (E)-N-Hydroxy-3-{1-[3′-(2-morpholin-4-yl-ethyl)-biphenyl-3-sulfonyl]-1H-pyrrol-3-yl}-acrylamide]", "EC50": "27 to 4400"},
      {"smiles": "CN1CCN(c2cc(-c3ccc(S(=O)(=O)n4ccc(/C=C/C(=O)NO)c4)cc3)ccn2)CC1", "note": "[Compound 28, (E)-N-Hydroxy-3-(1-{4-[2-(4-methyl-piperazin-1-yl)-pyridin-4-yl]-benzenesulfonyl}-1H-pyrrol-3-yl)-acrylamide]", "EC50": "27 to 4400"},
      {"smiles": "O=C(/C=C/c1ccn(S(=O)(=O)c2ccc(-c3cccc(CCN4CCOCC4)c3)cc2)c1)NO", "note": "[Compound 9, (E)-N-Hydroxy-3-{1-[3′-(2-morpholin-4-yl-ethyl)-biphenyl-4-sulfonyl]-1H-pyrrol-3-yl}-acrylamide]", "EC50": "27 to 4400"},
      {"smiles": "CN(C)Cc1ccc(-c2ccc(S(=O)(=O)n3ccc(/C=C/C(=O)NO)c3)s2)cc1", "note": "[Compound 46, (E)-3-{1-[5-(4-Dimethylaminomethyl-phenyl)-thiophene-2-sulfonyl]-1H-pyrrol-3-yl}-N-hydroxy-acrylamide]", "EC50": "27 to 4400"},
      {"smiles": "O=C(/C=C/c1ccn(S(=O)(=O)c2cccc(-c3cccc(CN4CCOCC4)c3)c2)c1)NO", "note": "[Compound 31, (E)-N-Hydroxy-3-[1-(3′-morpholin-4-ylmethyl-biphenyl-3-sulfonyl)-1H-pyrrol-3-yl]-acrylamide]", "EC50": "27 to 4400"}
    ]},
    {"test_system": "HeLa cervical carcinoma cell line", "assay": "Cellular cytotoxicity assay (Alamar Blue / Resazurin)", "format": "cell-based", "conditions": "Homo sapiens; HeLa cells, 48 hours incubation; read-out: IC50 (anti-proliferative/cytotoxic potency)", "protocol": "The anti-proliferative activity of the histone deacetylase inhibitory compounds as described herein, is evaluated with the HeLa cervical carcinoma cell line (ATCC CCL2) using the Alamar Blue (Resazurin) cell viability assay (O'Brien et al. Eur J Biochem 267, 5421-5426, 2000). Resazurin is reduced to the fluorescent resorufin by cellular dehydrogenase activity, correlating with viable, proliferating cells. Test compounds are dissolved as 10 mM solutions in dimethylsulfoxide (DMSO) and subsequently diluted in semi-logarithmic steps. HeLa cells are seeded into 96 well flat bottom plates at a density of 3000 cells per well in a volume of 200 μl per well. 24 hours after seeding 1 μl each of the compound dilutions are added into each well of the 96 Well plate. Each compound dilution is tested as quadruplicates. Wells containing untreated control cells are filled with 200 μl DMEM medium containing 0.5% v:v DMSO. The cells are then incubated with the substances for 48 hours at 37° C. in a humidified atmosphere containing 5% carbon dioxide. To determine the viability of the cells, 20 μl of an Resazurin solution (Sigma; 90 mg/l) are added. After 4 hours incubation at 37° C. the fluorescence is measured at an extinction of 544 nm and an emission of 590 nm. For the calculation of the cell viability the emission value from untreated cells is set as 100% viability and the emission rates of treated cells are set in relation to the values of untreated cells. Viabilites are expressed as % values. The corresponding IC50 values of the compounds for cytotoxic activity are determined from the concentration-effect curves by means of non-linear regression.", "units": {"IC50": "nM"}, "values": [
      {"smiles": "O=C(/C=C/c1ccn(S(=O)(=O)c2ccc(-c3ccc4c(c3)CCO4)cc2)c1)NO", "note": "[Compound 70, (E)-3-{1-[4-(2,3-Dihydro-benzofuran-5-yl)-benzenesulfonyl]-1H-pyrrol-3-yl}-N-hydroxy-acrylamide]", "IC50": "14 to 6700"},
      {"smiles": "O=C(/C=C/c1ccn(S(=O)(=O)c2ccc(-c3ccc(O)cc3)cc2)c1)NO", "note": "[Compound 67, (E)-N-Hydroxy-3-[1-(4′-hydroxy-biphenyl-4-sulfonyl)-1H-pyrrol-3-yl]acrylamide]", "IC50": "14 to 6700"},
      {"smiles": "NCc1ccc(-c2ccccc2)cc1S(=O)(=O)n1ccc(/C=C/C(=O)NO)c1", "note": "[Compound 91, (E)-3-[1-(4-Aminomethyl-biphenyl-3-sulfonyl)-1H-pyrrol-3-yl]-N-hydroxy-acrylamide]", "IC50": "14 to 6700"},
      {"smiles": "O=C(/C=C/c1ccn(S(=O)(=O)c2ccc(-c3ccc(N4CCOCC4)cc3)cc2)c1)NO", "note": "[Compound 71, (E)-N-Hydroxy-3-[1-(4′-morpholin-4-yl-biphenyl-4-sulfonyl)-1H-pyrrol-3-yl]-acrylamide]", "IC50": "14 to 6700"},
      {"smiles": "Nc1cccc(-c2ccc(S(=O)(=O)n3ccc(/C=C/C(=O)NO)c3)cc2)c1", "note": "[Compound 66, (E)-3-[1-(3′-Amino-biphenyl-4-sulfonyl)-1H-pyrrol-3-yl]-N-hydroxy-acrylamide]", "IC50": "14 to 6700"},
      {"smiles": "CN(C)S(=O)(=O)c1ccc(-c2ccc(S(=O)(=O)n3ccc(/C=C/C(=O)NO)c3)s2)cc1", "note": "[Compound 100, (E)-3-{1-[5-(4-Dimethylsulfamoyl-phenyl)-thiophene-2-sulfonyl]-1H-pyrrol-3-yl}-N-hydroxy-acrylamide]", "IC50": "14 to 6700"}
    ]}
  ]
}
